For one experiment, the system named is P. mirabilis. Nature of the experiment: Agarose dilution assay (MIC). In kind it is cell-based.
The nature of another experiment: Liposome dye release. The following applies: egg PC liposomes. On the procedure:
In this example, a dye pair consisting of the fluorescent molecule 8-aminonapthalene-1,3,6-trisulfonic acid (ANTS) and its quencher molecule p-xylene-bis-pyridinium bromide (DPX) are used. The mixture of free dye molecules, dye free liposomes, and liposomes containing encapsulated ANTS-DPX are separated by size exclusion chromatography. In the assay, the test peptide is incubated with the ANTS-DPX containing liposomes and the fluorescence due to ANTS release to the outside of the liposome is measured over time.
Using this assay, peptide activity, measured by dye release, is shown to be extremely sensitive to the composition of the liposomes at many liposome to peptide ratios (L/P) (FIG. 7). […] This […] selectivity may mimic that observed […] for bacterial cells in the presence of mammalian cells.
ANTS/DPX can be replaced with fluorescein isothiocyanate-labeled dextran (FD-4), molecular weight 4,400, in the egg PC liposomes.

A further experiment relates to Candida. Description: Agarose dilution assay (MIC) against Candida. The experiment is classed as cell-based.
Experiment [1] deals with S. epidermidis (ATCC # 12228). Description: In vivo efficacy, S. epidermidis infection. The following applies: iv.
In another experiment the test system is MCF-7, breast carcinoma. Description: Cell death by Cytotox (Promega) lactate dehydrogenase release. The experiment is classed as cell-based. The following applies: LDH release. As for the experimental part:
(§1) In addition, APO-peptides and parent peptides are tested against a panel of cancer cell lines. Cell death is measured using the Cytotox (Promega) assay kit which measures the release of lactate dehydrogenase.
(§2) PBL, peripheral blood lymphocytes; HUVEC, human umbilical vein endothelial cells; H460,non-small lung tumor; K562, chronic myelogenous leukemia; DoHH-2, B-cell cell lymphoma; P388, lymphocytic leukemia; P388ADR, lymphocytic leukemia, multidrug resistant; MCF-7, breast carcinoma; MCF-7ADR, breast carcinoma, multidrug resistant.
(LDH in the medium is a marker of cell lysis.)

Experiment [2] concerns HUVEC, human umbilical vein endothelial cells. The experiment is described as above. In kind it is cell-based. The following applies: LDH release. As for the experimental part: as §1, §2
Experiment [3] relates to PBL, peripheral blood lymphocytes. Described as above. In kind it is cell-based. The following applies: LDH release. On the procedure:
as §1, §2

Experiment [4] concerns P388, lymphocytic leukemia. The description is as above. In kind it is cell-based. The following applies: LDH release. On the procedure:
as §1, §2

For experiment [5], the system named is H460, non-small lung tumor. The description is as above. The experiment is classed as cell-based. As to conditions: LDH release. As for the experimental part: as §1, §2
The subject of experiment [6] is MCF-7ADR, breast carcinoma, multidrug resistant. The experiment is described as above. In kind it is cell-based. The following applies: LDH release. On the procedure: as §1, §2
Experiment [7] relates to P388ADR, lymphocytic leukemia, multidrug resistant. Described as above. The experiment is classed as cell-based. The following applies: LDH release. As for the experimental part: as §1, §2
Another experiment deals with S. aureus. Description: microbe, parasite or virus in culture. The experiment is classed as cell-based.
The next experiment relates to a bacterial strain. Description: Killing curves, combination of cationic peptide and antibiotic agent. The experiment is classed as cell-based. The following applies: in combination with vancomycin, FIG. 3E. As for the experimental part: As used herein, “synergy” refers to the in vitro effect of administration of a combination of a cationic peptide and antibiotic agent such that (I) the fractional inhibitory concentration (FIC) is less than or equal to 0.5 in an FIC assay described herein; or (2) there is at least a 100-fold (21og10) increase in killing at 24 hours for the combination as compared with the antibiotic agent alone in a time kill curve assay as described herein.
Time kill curves resulting from combination of cationic peptide and antibiotic agent are compared to that resulting from agent alone.
The assay is performed as described above except that duplicate tubes are set up for each concentration of the antibiotic agent alone and of the combination of antibiotic agent and cationic peptide.

For another experiment, the system named is tolerant organisms. Nature of the experiment: Overcoming tolerance: MBC and MIC by agarose dilution, antibiotic alone and with peptide. The experiment is classed as cell-based. As to conditions: combination of Vancomycin and peptide, organisms of Table 18.
For another experiment, the system named is S. pyogenes. Nature of the experiment: Agarose dilution assay (MIC). In kind it is cell-based. As to conditions: S. pyogenes strain SPY006.
In experiment [8] the test system is DoHH-2, B-cell cell lymphoma. Description: Cell death by Cytotox (Promega) lactate dehydrogenase release. The experiment is classed as cell-based. The following applies: LDH release. On the procedure: as §1, §2
The test system of experiment [9] is K562, chronic myelogenous leukemia. The description is as above. As to conditions: LDH release. The experiment is classed as cell-based. On the procedure: as §1, §2
A further experiment deals with P. vulgaris. Nature of the experiment: Agarose dilution assay (MIC). The experiment is classed as cell-based.

Experimental findings from patent US20020035061A1, “COMPOSITIONS AND METHODS FOR TREATING INFECTIONS USING CATIONIC PEPTIDES ALONE OR IN COMBINATION WITH ANTIBIOTICS” (priority 1996, published 2002) are described below.

As to ILKKWPWWPWRRK [MBI 11CN], the minimum inhibitory concentration (MIC) (as a rule, the least concentration at which growth counts as inhibited) was over 128 µg/mL in the experiment on P. mirabilis (P. mirabilis PM002); 128 µg/mL against Candida (C. albicans CA001); 64 µg/mL in the experiment on Candida (C. albicans CA002); 128 µg/mL in the experiment on Candida (C. albicans CA003); 64 µg/mL in the experiment with Candida (C. albicans CA004); 128 µg/mL against Candida (C. albicans CA005). Besides, the MIC in the experiment on Candida (C. albicans CA006) is 128 µg/mL; with Candida (C. albicans CA007), 128 µg/mL; with Candida (C. albicans CA008), 64 µg/mL; in the experiment with Candida (C. albicans CA009), 64 µg/mL; in the experiment on Candida (C. albicans CA010), 128 µg/mL; in the experiment on Candida (C. albicans CA011), 64 µg/mL. Moreover, the MIC worked out at 128 µg/mL against Candida (C. albicans CA012); 128 µg/mL against Candida (C. albicans CA013); 64 µg/mL in the experiment with Candida (C. albicans CA014); 128 µg/mL against Candida (C. albicans CA015); 128 µg/mL against Candida (C. albicans CA016); 128 µg/mL with Candida (C. albicans CA017). In addition, the MIC with Candida (C. albicans CA018) was 128 µg/mL; in the experiment with Candida (C. albicans CA019) it was 128 µg/mL; against Candida (C. albicans CA020), 128 µg/mL; in the experiment with Candida (C. albicans CA021), 128 µg/mL; in the experiment on Candida (C. albicans CA022), 32 µg/mL; in the experiment with Candida (C. albicans CA023), 128 µg/mL. In addition, the MIC is 16 µg/mL against Candida (C. albicans CA024); over 128 µg/mL with Candida (C. glabrata CGL001); over 128 µg/mL in the experiment with Candida (C. glabrata CGL002); over 128 µg/mL against Candida (C. glabrata CGL003); over 128 µg/mL against Candida (C. glabrata CGL004); over 128 µg/mL with Candida (C. glabrata CGL005). The MIC was over 128 µg/mL in the experiment with Candida (C. glabrata CGL009); over 128 µg/mL against Candida (C. glabrata CGL010); 0.5 µg/mL in the experiment on Candida (C. krusei CKR001); 4 µg/mL in the experiment with Candida (C. tropicalis CTR001); 4 µg/mL with Candida (C. tropicalis CTR002); 8 µg/mL in the experiment on Candida (C. tropicalis CTR003). For the same sequence, the MIC against Candida (C. tropicalis CTR004) was 4 µg/mL; with Candida (C. tropicalis CTR005) it was 4 µg/mL; in the experiment with Candida (C. tropicalis CTR006), 16 µg/mL; in the experiment on Candida (C. tropicalis CTR007), 16 µg/mL; in the experiment with Candida (C. tropicalis CTR008) it was 8 µg/mL; against Candida (C. tropicalis CTR009), 8 µg/mL. Also, the “FD-4 (MW 4,400) release” value in the experiment “Liposome dye release” was “No increase in FD-4 fluorescence”. Besides, the efficacy entry was “less activity” in experiment [1] (30 minutes post-infection), “no significant effect” in experiment [1] (60 minutes post-infection) and “Efficacy is observed at all three dose levels” in experiment [1] (treatment 15 minutes post-infection). Moreover, in experiment [1] (formulation D), the “survival of the mice” value is on record as “prolongs the survival of the mice”. Further, the “LC50 ± S.E., MCF-7” value in the experiment on MCF-7, breast carcinoma worked out at 11.8 ± 9 µg/mL. Further, the “LC50 ± S.E., HUVEC” value in [2] was over 190 µg/mL. Moreover, the “LC50 ± S.E., PBL” value in experiment [3] came to 57 µg/mL. Further, the “LC50 ± S.E., P388” value in [4] came to 30 µg/mL. Moreover, the “LC50 ± S.E., H460” value in experiment [5] is 200 µg/mL. Besides, the “LC50 ± S.E., MCF-7 ADR” value in experiment [6] came to 17 ± 1 µg/mL. In addition, the “LC50 ± S.E., P388 ADR” value in experiment [7] turned out to be 25 µg/mL.

Take KKWWRRALQGLKTAGPAIQSVLNK [MBI 21A2]: in the experiment on S. aureus (S. aureus SA25), the “Ciprofloxacin MIC + Peptide” value was 1 µg/mL and the “Peptide MIC + Ciprofloxacin” value turned out to be 1 µg/mL. For the same sequence, the “Peptide MIC Alone” value in the experiment on S. aureus (S. aureus SA25, Ciprofloxacin section) turned out to be 16 µg/mL. Further, the “acquired resistance of S. aureus to piperacillin and ciprofloxacin” value with S. aureus (antibiotic agents combined with peptide) is on record as “overcome”. In the experiment with S. aureus (peptide + Ciprofloxacin, S. aureus SA25), the FIC was 0.56.

For KWKSFIKKLTSAAKKVVTTAKPLISS [MBI 26], the “killing by combination compared with peptide or antibiotic agent alone” value in the experiment with a bacterial strain is listed as “greater killing than either peptide or antibiotic agent alone”. In addition, in the experiment on tolerant organisms, the “tolerance (MBC:MIC) to Vancomycin” value is listed as “overcomes the tolerance”.

Consider ILRWPWWPWRRK [MBI 11B7CN], for which the MIC was over 128 µg/mL against P. mirabilis (P. mirabilis strain PM002); 64 µg/mL against Candida (C. albicans CA001); 32 µg/mL in the experiment with Candida (C. albicans CA002); 64 µg/mL in the experiment with Candida (C. albicans CA003); 32 µg/mL in the experiment on Candida (C. albicans CA004); 32 µg/mL in the experiment with Candida (C. albicans CA005). Moreover, the MIC with Candida (C. albicans CA006) was determined as 64 µg/mL; against Candida (C. albicans CA007) it was 64 µg/mL; against Candida (C. albicans CA008), 32 µg/mL; in the experiment with Candida (C. albicans CA009), 32 µg/mL; against Candida (C. albicans CA010), 64 µg/mL; against Candida (C. albicans CA011) it was 64 µg/mL. Also, the MIC was found to be 64 µg/mL in the experiment on Candida (C. albicans CA012); 64 µg/mL against Candida (C. albicans CA013); 32 µg/mL against Candida (C. albicans CA014); 64 µg/mL against Candida (C. albicans CA015); 64 µg/mL with Candida (C. albicans CA016); 64 µg/mL against Candida (C. albicans CA017). Also, the MIC in the experiment on Candida (C. albicans CA018) was found to be 64 µg/mL; in the experiment with Candida (C. albicans CA019), 64 µg/mL; in the experiment on Candida (C. albicans CA020) it was 32 µg/mL; against Candida (C. albicans CA021), 32 µg/mL; in the experiment on Candida (C. albicans CA022), 32 µg/mL; in the experiment with Candida (C. albicans CA023), 64 µg/mL. Besides, the MIC in the experiment with Candida (C. albicans CA024) turned out to be 8 µg/mL; against Candida (C. glabrata CGL001) it was 128 µg/mL; against Candida (C. glabrata CGL002) it was 128 µg/mL; in the experiment on Candida (C. glabrata CGL003), 128 µg/mL; in the experiment on Candida (C. glabrata CGL004), 128 µg/mL; against Candida (C. glabrata CGL005) it was 128 µg/mL. The MIC came to 128 µg/mL with Candida (C. glabrata CGL009); 128 µg/mL in the experiment with Candida (C. glabrata CGL010); 1 µg/mL with Candida (C. krusei CKR001); 4 µg/mL against Candida (C. tropicalis CTR001); 8 µg/mL in the experiment on Candida (C. tropicalis CTR002); 8 µg/mL against Candida (C. tropicalis CTR003). Also, the MIC in the experiment with Candida (C. tropicalis CTR004) worked out at 8 µg/mL; against Candida (C. tropicalis CTR005) it was 4 µg/mL; against Candida (C. tropicalis CTR006), 8 µg/mL; against Candida (C. tropicalis CTR007), 8 µg/mL; against Candida (C. tropicalis CTR008) it was 4 µg/mL; against Candida (C. tropicalis CTR009), 4 µg/mL. In the experiment with S. pyogenes, this sequence had an MIC of 16 µg/mL. Besides, the “LC50 ± S.E., MCF-7” value with MCF-7, breast carcinoma was over 700 µg/mL. Moreover, the “LC50 ± S.E., DoHH-2” value in [8] amounted to 16.5 ± 3 µg/mL. Also, the “LC50 ± S.E., HUVEC” value in experiment [2] is 90 ± 23 µg/mL. Besides, in experiment [3], the “LC50 ± S.E., PBL” value came to 24 ± 10 µg/mL. Also, the “LC50 ± S.E., P388” value in experiment [4] is 13.8 µg/mL. Also, in experiment [9], the “LC50 ± S.E., K562” value amounted to 34 ± 25 µg/mL. Besides, in [5], the “LC50 ± S.E., H460” value amounted to 26 ± 25 µg/mL.

ILKKFPFFPFRRK [MBI 11A1CN] displayed an MIC against P. vulgaris (P. vulgaris SBPV1) of over 128 µg/mL. Further, the “Peptide MIC values” in the experiment on P. vulgaris (agarose dilution, P. vulgaris ATCC 13315) is over 128 µg/mL.
